Results: patent US5468486A, “Vaccine containing a protein alkaloid conjugate for the treatment of fescue toxicosis” (priority 1994, dated 1995)

Test system: antiserum produced against the ergonovine KLH conjugate
Experiment: Competitive ELISA
Type: binding, rabbit
Conditions: for Concentration (ng/ml) of 50% A (A50) / IC50: predicted value for 50% maximal absorbance, linear regression, antiserum 1:1000, HSA-ergonovine coated plates; for IC50: read-out: Concentration (μM) of 50% A; for Cross Reactivity (%): relative to ergonovine
Experimental: Antiserum preparation: Three female New Zealand white rabbits were immunized with the HSA-ergonovine conjugate and two with the KLH-ergonovine conjugate. Initially, each rabbit was injected with 1 mg of the respective conjugate in 1 ml of phosphate buffered saline that had been emulsified with an equal amount of Freund's complete adjuvant. Booster injections of 0.2 mg of conjugate per rabbit, emulsified with Freund's incomplete adjuvant, were given at 5 and 10 weeks after the first injections. The rabbits were bled 8 and 16 days after each booster injection. Serum was collected after two cycles of low speed centrifugation. Serum from each rabbit was pooled before testing in the competitive enzyme linked immunosorbent assay (ELISA).
Competitive ELISA: Duplicate polystyrene ELISA plates were numbered and rinsed once with distilled water. The HSA-ergonovine conjugate [[…] in carbonate coating buffer (0.5μsodium carbonate, pH 9.6)] was pipetted into each well ([…]). After 2H at 30° C. the plates were washed 4 times quickly with physiologically buffered saline (PBS) Tween (0.02M phosphate, 0.15M NaCl, 3 mM KC1+0.05% TWEEN 20, pH 7.3). All subsequent rinse steps were done with PBS-Tween. Serial dilutions were made of […] compounds used in the competitive assay. All dilutions were made in PBS-Tween. These compounds and their initial concentrations were: agroclavine 0.5 mM, ergocryptine at 100 μM, unconjugated ergonovine at 1 μM, ergotamine at 100 μM, ergovaline at 10 μM, lysergol at 10 mM, dihydroergotamine at 200 μM and IAA at 1 mM. After placing 100 μl of each dilution in duplicate wells, an additional 100 μl of antiserum, produced against the ergonovine KLH conjugate, was added to each well at a dilution of 1:1000 and mixed. The plates were incubated for 2 H at 30° C. and again rinsed 4 times quickly. Protein-A alkaline phosphatase (0.5 μg/ml in PBS-Tween) was placed in wells (200 μl/well) and incubated for 2 H at 30° C. The plates were again rinsed 4 times. Substrate, SIGMA 104® phosphatase substrate (5 mg/ml), in 10% diethanolamine, pH 9.6 was added to each well (150 μl/well). The reaction was stopped after 30 min. with 3M NaOH (75 μl/well). The plates were read on a DYNATECH MINIREADER II® reader. Mean values were calculated from duplicate wells per plate and duplicate plates were averaged. From these values a percent maximal absorbance level was calculated.

SMILES | Concentration (ng/ml) of 50% A (A50) [ng/mL] | IC50 [µM] | Cross Reactivity (%) | Concentration (ng/ml) of 50% A (A50) (listed as ergocrytine) | Cross Reactivity (%) (listed as ergocrytine) | Cross Reactivity (%) (listed as Lysergol) | Concentration (ng/ml) of 50% A (A50) (listed as Ergovaline) | Cross Reactivity (%) (listed as Ergovaline)
C[C@@H](CO)NC(=O)[C@@H]1C=C2c3cccc4[nH]cc(c34)C[C@H]2N(C)C1 [ergonovine] | 1.6 | 0.05 | 100 |  |  |  |  | 
CC(C)C[C@H]1C(=O)N2CCC[C@H]2[C@]2(O)O[C@](NC(=O)[C@@H]3C=C4c5cccc6[nH]cc(c56)C[C@H]4N(C)C3)(C(C)C)C(=O)N12 [ergocryptine] | 33 | 0.59 | 5 | below 100 ng/ml | ≥ 2 |  |  | 
CN1C[C@H](C(=O)N[C@]2(C)O[C@@]3(O)[C@@H]4CCCN4C(=O)[C@H](Cc4ccccc4)N3C2=O)C=C2c3cccc4[nH]cc(c34)C[C@H]21 [ergotamine] |  | 0.4 |  |  |  |  |  | 
CC1=C[C@@H]2c3cccc4[nH]cc(c34)C[C@H]2N(C)C1 [agroclavine] |  | 3.2 |  |  |  |  |  | 
CN1C[C@H](CO)C=C2c3cccc4[nH]cc(c34)C[C@H]21 [lysergol] | 940 | 3.7 | 4 |  |  | less than 1% |  | 
CC(C)[C@H]1C(=O)N2CCC[C@H]2[C@]2(O)O[C@@](C)(NC(=O)[C@@H]3C=C4c5cccc6[nH]cc(c56)C[C@H]4N(C)C3)C(=O)N12 [ergovaline] | 8 | 0.15 | 20 |  |  |  | below 100 ng/ml | ≥ 2
CN1C[C@H](C(=O)N[C@]2(C)O[C@@]3(O)[C@@H]4CCCN4C(=O)[C@H](Cc4ccccc4)N3C2=O)C[C@@H]2c3cccc4[nH]cc(c34)C[C@H]21 [dihydroergotamine] | 6833 |  |  |  |  |  |  | 
